Non-standard residues stand in square brackets, D forms with d. Residues, ends and D or L forms follow the SMILES beside them. *: point of attachment. X2 = COc1ccc(CN(CC(=O)N(CCCOC(C)C)CC(=O)*)C(=O)CCC(=O)c2cccs2)cc1; N(4-MeOBn)Gly = COc1ccc(CNCC(=O)O)cc1; N((CH2)3OiPr)Gly = CC(C)OCCCNCC(=O)O; Stearoyl = CCCCCCCCCCCCCCCCCC(=O)*; Palmitoyl = CCCCCCCCCCCCCCCC(=O)*; Myristoyl = CCCCCCCCCCCCCC(=O)*; Gly(N-cHex) = O=C(O)CNC1CCCCC1; X1 = O=C(CCC(=O)*)c1cccs1; Nlys = NCCCCNCC(=O)O; Nme = COCCNCC(=O)O
Experiments:
H441 cells [1] = experiment: Cell viability, single and combination treatment with MEK/ERK inhibitors; format: cell-based; conditions: Homo sapiens, NCI-H441; single treatment, 3 D incubation; heterozygous KRAS G12V
Description: Provided herein are pan-KRAS inhibitors that can enhance the sensitivity of heterozygous KRAS mutant cells to KRAS downstream inhibitors, thereby overcoming limitations in their use for cancer therapy. FIG. 11A is an illustration presenting that heterozygous KRAS mutant cells are resistant to the inhibition of KRAS downstream signaling while homozygous KRAS mutant cells are sensitive to such inhibition, therefore blocking wild type KRAS potentially re-sensitizes the heterozygous KRAS mutant cells to the inhibition of KRAS downstream signaling. Cell viability of H441 cells harboring heterozygous KRAS G12V were assessed in combination treatment with PKR1-C16. FIG. 11B is a graphical representation presenting the cell viability of H441 harboring heterozygous KRAS G12V with co-treatments of Trametinib (upper panel) and Ulixertinib with PKR1-C16 (lower panel). […] Concentration gradients of Trametinib and Ulixertinib were co-treated with 1, 3, 5, and 7 μM of PKR1-C16, respectively. […] Blocking WT KRAS enables the re-sensitization of heterozygous KRAS mutant cells to the inhibitors of KRAS downstream signaling.

H2122 cells = conditions: homozygous KRAS G12C (H2122) vs heterozygous KRAS G12C (H23); cited from earlier work
H441 cells [2] = experiment: MTS cell viability assay; format: cell-based; conditions: H441 (KRASG12V); vs PKR1
Description: Three cancer cell lines (H441, H358, and H1993) harboring KRAS G12V, KRAS G12C, and WT KRAS, respectively, were subjected to treatment with the fatty acid conjugated-PKR1. […] FIGS. 6A-6C are graphical representations of the effects of the fatty acid conjugated PKR1 derivatives on cell survival and proliferation of (A) H441, (B) H358, and (C) H1993 cell lines. FIG. 6D presents the IC50 values of fatty acid conjugated PKR1 derivatives in H441, H1993, and H358 cell lines. […] As KRAS is predominant in the membrane consisting of unsaturated fatty acids, conjugating unsaturated fatty acids to PKR1 can facilitate its anchoring onto the membrane, thereby improving efficacy.
To examine the capacity of PKR1 derivatives as broad-spectrum KRAS inhibitors, MTS assays were conducted in various types of cell lines representing different cancer types, KRAS mutations, and KRAS gene zygosity (Table 1). IC50 values for each cell line were obtained from the MTS assay with PKR1-C16 treatment.

## CC(C)Nc1cc(-c2c[nH]c(C(=O)N[C@H](CO)c3cccc(Cl)c3)c2)c(Cl)cn1 [Ulixertinib, ulixertinib]
H441 cells [1]
  IC50: 17 µM
H2122 cells
  potency in H2122 compared with H23 cells: higher potency in H2122 cells

## CC(=O)Nc1cccc(-n2c(=O)n(C3CC3)c(=O)c3c(Nc4ccc(I)cc4F)n(C)c(=O)c(C)c32)c1 [Trametinib, trametinib]
H441 cells [1]
  IC50: 10.4 µM
H2122 cells
  potency in H2122 compared with H23 cells: higher potency in H2122 cells

## CCCCCCCCCCCCCCCC(=O)NCCCC[C@H](NC(=O)[C@H](C)NC(=O)CN(CCOC)C(=O)CN(CCCCN)C(=O)CN(CCCCN)C(=O)CN(C(=O)CN(CCCOC(C)C)C(=O)[C@H](CCCCNC(=O)CN(CCCOC(C)C)C(=O)CN(Cc1ccc(OC)cc1)C(=O)CCC(=O)c1cccs1)NC(=O)CN(CCCOC(C)C)C(=O)CN(Cc1ccc(OC)cc1)C(=O)CCC(=O)c1cccs1)C1CCCCC1)C(N)=O [PKR1-C16] (X1-[N(4-MeOBn)Gly][N((CH2)3OiPr)Gly]K(X2)[N((CH2)3OiPr)Gly][Gly(N-cHex)][Nlys][Nlys][Nme]AK(Palmitoyl)-NH2)
H441 cells [2]
  increase in potency: over 25 fold

## CCCCCCCCCCCCCCCCCC(=O)NCCCC[C@H](NC(=O)[C@H](C)NC(=O)CN(CCOC)C(=O)CN(CCCCN)C(=O)CN(CCCCN)C(=O)CN(C(=O)CN(CCCOC(C)C)C(=O)[C@H](CCCCNC(=O)CN(CCCOC(C)C)C(=O)CN(Cc1ccc(OC)cc1)C(=O)CCC(=O)c1cccs1)NC(=O)CN(CCCOC(C)C)C(=O)CN(Cc1ccc(OC)cc1)C(=O)CCC(=O)c1cccs1)C1CCCCC1)C(N)=O [PKR1-C18] (X1-[N(4-MeOBn)Gly][N((CH2)3OiPr)Gly]K(X2)[N((CH2)3OiPr)Gly][Gly(N-cHex)][Nlys][Nlys][Nme]AK(Stearoyl)-NH2)
H441 cells [2]
  increase in potency: over 25 fold

## CCCCCCCCCCCCCC(=O)NCCCC[C@H](NC(=O)[C@H](C)NC(=O)CN(CCOC)C(=O)CN(CCCCN)C(=O)CN(CCCCN)C(=O)CN(C(=O)CN(CCCOC(C)C)C(=O)[C@H](CCCCNC(=O)CN(CCCOC(C)C)C(=O)CN(Cc1ccc(OC)cc1)C(=O)CCC(=O)c1cccs1)NC(=O)CN(CCCOC(C)C)C(=O)CN(Cc1ccc(OC)cc1)C(=O)CCC(=O)c1cccs1)C1CCCCC1)C(N)=O [PKR1-C14] (X1-[N(4-MeOBn)Gly][N((CH2)3OiPr)Gly]K(X2)[N((CH2)3OiPr)Gly][Gly(N-cHex)][Nlys][Nlys][Nme]AK(Myristoyl)-NH2)
H441 cells [2]
  increase in potency: over 25 fold

From patent US20260297128A1, “PEPTOID COMPOSITIONS TARGETING RAS PROTEINS AND METHODS OF TREATMENT OF CANCER USING THE SAME” (University of Houston System, priority 2023, published 2026)
